# Test system: feces samples
# Assay type: cell-based, human
substance,measurement,value
Clostridium butyricum [CB],change in amount of butyrate,increases significantly

# — patent publication US12282026B2, “Method for screening personalized intestinal environment-improving material and composition therefor” (HEM PHARMA INC., priority 2019, dated 2025)
